Results: ChEMBL document CHEMBL1155192, “The identification of beta-hydroxy carboxylic acids as selective MMP-12 inhibitors” (Bioorg Med Chem Lett, 2009)
pIC50: −log10 of the molar value. ≈ marks a conversion by molar mass, not a printed value.

Assays:
[1] = molecular target: T1, Interstitial collagenase (Homo sapiens, UniProt P03956); test: Inhibition of human recombinant MMP1
T1 sequence (P03956 whole entry): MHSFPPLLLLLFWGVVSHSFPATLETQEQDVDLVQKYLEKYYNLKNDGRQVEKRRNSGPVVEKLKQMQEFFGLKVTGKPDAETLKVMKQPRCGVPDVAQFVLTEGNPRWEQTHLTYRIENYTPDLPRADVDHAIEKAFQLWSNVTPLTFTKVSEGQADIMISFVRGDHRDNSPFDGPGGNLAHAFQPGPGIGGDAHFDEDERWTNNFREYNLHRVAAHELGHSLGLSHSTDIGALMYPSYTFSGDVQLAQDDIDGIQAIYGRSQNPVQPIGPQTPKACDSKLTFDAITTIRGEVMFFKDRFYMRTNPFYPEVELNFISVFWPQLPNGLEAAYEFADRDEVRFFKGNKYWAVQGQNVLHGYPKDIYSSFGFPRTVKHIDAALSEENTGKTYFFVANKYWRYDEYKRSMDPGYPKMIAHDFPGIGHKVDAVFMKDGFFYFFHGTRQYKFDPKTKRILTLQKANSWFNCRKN

[2] = molecular target: Macrophage metalloelastase (Homo sapiens, UniProt P39900); test: Inhibition of human recombinant MMP12
Sequence of Macrophage metalloelastase (P39900 whole entry): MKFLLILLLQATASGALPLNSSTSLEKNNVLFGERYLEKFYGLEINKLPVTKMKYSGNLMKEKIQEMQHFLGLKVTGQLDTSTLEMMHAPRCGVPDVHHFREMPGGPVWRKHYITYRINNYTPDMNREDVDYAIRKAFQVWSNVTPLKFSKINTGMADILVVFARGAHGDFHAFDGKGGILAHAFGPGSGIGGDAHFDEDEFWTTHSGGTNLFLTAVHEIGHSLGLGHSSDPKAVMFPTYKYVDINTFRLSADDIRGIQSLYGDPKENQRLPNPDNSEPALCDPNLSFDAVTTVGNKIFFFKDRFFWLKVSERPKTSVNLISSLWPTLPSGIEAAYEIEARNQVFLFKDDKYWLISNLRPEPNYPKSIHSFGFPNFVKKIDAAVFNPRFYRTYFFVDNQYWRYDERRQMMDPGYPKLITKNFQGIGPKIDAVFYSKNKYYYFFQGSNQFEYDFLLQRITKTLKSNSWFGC

[3] = molecular target: Collagenase 3 (Homo sapiens, UniProt P45452); test: Inhibition of human recombinant MMP13
[4] = molecular target: T2, Matrilysin (Homo sapiens, UniProt P09237); test: Inhibition of human recombinant MMP7
T2 sequence (P09237 whole entry): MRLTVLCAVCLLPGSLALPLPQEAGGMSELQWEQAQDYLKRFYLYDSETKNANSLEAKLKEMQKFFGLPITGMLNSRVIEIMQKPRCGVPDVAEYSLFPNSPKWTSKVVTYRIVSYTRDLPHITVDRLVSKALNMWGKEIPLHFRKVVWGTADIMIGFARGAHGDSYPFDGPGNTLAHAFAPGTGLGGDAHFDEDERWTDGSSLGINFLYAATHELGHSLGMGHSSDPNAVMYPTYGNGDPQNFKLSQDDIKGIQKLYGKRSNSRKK

[5] = molecular target: Stromelysin-1 (Homo sapiens, UniProt P08254); test: Inhibition of human recombinant MMP3
Sequence of Stromelysin-1 (P08254 whole entry): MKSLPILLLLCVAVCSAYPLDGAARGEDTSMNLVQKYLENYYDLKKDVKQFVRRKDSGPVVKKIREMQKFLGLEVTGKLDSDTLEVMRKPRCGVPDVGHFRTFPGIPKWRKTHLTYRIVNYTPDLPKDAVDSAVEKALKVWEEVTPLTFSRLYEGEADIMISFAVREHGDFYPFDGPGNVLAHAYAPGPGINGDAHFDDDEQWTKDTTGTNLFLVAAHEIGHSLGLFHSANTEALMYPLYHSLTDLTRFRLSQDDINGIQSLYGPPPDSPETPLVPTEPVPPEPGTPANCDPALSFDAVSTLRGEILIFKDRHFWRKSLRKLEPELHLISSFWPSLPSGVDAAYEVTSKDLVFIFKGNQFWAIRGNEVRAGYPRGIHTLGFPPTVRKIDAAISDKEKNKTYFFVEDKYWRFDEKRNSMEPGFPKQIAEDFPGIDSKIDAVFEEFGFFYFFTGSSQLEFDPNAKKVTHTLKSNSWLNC

[6] = molecular target: 72 kDa type IV collagenase (Homo sapiens, UniProt P08253); test: Inhibition of human recombinant MMP2
Sequence of 72 kDa type IV collagenase (P08253 whole entry): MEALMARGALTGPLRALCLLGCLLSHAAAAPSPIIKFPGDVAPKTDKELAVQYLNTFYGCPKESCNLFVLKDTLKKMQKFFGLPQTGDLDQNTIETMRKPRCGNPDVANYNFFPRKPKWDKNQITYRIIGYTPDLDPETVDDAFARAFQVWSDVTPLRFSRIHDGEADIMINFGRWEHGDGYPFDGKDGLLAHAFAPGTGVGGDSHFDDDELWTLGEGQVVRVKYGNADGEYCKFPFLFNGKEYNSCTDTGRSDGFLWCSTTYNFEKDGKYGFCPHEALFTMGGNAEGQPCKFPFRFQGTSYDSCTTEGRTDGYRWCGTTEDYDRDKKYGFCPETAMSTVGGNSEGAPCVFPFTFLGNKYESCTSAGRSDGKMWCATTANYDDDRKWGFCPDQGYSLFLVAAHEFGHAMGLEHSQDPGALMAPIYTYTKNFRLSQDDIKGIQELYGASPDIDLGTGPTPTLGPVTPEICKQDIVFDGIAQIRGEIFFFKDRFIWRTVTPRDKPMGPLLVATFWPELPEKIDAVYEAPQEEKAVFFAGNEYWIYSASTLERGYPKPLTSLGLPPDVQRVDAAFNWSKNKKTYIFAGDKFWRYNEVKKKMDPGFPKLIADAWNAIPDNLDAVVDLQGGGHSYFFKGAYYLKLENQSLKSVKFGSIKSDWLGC

[7] = Lipophilicity, log D at pH 7.4; format: physicochemical; conditions: buffer
[8] = Lipophilicity, log D at pH 6.2; format: physicochemical; conditions: buffer
[9] = Solubility at pH 7.4; format: physicochemical; conditions: buffer
[10] = Solubility at pH 6.2; format: physicochemical; conditions: buffer
[11] = molecular target: Matrix metalloproteinase-9 (Homo sapiens, UniProt P14780); test: Inhibition of human recombinant MMP9
Sequence of Matrix metalloproteinase-9 (P14780 whole entry): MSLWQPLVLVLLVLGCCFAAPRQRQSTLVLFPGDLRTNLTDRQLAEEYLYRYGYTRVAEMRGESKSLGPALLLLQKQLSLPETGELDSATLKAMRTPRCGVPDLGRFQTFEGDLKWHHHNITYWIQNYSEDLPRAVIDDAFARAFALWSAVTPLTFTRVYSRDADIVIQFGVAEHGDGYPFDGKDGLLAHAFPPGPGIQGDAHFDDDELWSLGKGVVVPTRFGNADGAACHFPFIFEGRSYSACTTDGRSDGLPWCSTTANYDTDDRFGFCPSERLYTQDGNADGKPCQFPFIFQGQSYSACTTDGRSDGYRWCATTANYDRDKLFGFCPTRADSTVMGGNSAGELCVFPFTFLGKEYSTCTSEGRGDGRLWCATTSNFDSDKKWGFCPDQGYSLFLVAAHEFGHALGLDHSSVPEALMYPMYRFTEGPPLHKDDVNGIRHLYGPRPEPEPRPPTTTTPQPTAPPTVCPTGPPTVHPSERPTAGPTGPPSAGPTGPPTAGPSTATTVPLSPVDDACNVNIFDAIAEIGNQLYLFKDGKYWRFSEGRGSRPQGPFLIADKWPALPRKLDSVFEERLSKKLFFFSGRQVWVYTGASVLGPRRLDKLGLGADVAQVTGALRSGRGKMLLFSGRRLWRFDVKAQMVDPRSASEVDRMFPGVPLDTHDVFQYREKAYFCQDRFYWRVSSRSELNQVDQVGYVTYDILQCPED

[12] = Inhibition of guinea pig recombinant MMP12; parameters: species or system Cavia porcellus
[13] = molecular target: Matrix metalloproteinase-14 (Homo sapiens, UniProt P50281); test: Inhibition of human recombinant MMP14
[14] = molecular target: Disintegrin and metalloproteinase domain-containing protein 17 (Homo sapiens, UniProt P78536); test: Inhibition of human recombinant TACE
Sequence of Disintegrin and metalloproteinase domain-containing protein 17 (P78536 whole entry, the tested form may be a part): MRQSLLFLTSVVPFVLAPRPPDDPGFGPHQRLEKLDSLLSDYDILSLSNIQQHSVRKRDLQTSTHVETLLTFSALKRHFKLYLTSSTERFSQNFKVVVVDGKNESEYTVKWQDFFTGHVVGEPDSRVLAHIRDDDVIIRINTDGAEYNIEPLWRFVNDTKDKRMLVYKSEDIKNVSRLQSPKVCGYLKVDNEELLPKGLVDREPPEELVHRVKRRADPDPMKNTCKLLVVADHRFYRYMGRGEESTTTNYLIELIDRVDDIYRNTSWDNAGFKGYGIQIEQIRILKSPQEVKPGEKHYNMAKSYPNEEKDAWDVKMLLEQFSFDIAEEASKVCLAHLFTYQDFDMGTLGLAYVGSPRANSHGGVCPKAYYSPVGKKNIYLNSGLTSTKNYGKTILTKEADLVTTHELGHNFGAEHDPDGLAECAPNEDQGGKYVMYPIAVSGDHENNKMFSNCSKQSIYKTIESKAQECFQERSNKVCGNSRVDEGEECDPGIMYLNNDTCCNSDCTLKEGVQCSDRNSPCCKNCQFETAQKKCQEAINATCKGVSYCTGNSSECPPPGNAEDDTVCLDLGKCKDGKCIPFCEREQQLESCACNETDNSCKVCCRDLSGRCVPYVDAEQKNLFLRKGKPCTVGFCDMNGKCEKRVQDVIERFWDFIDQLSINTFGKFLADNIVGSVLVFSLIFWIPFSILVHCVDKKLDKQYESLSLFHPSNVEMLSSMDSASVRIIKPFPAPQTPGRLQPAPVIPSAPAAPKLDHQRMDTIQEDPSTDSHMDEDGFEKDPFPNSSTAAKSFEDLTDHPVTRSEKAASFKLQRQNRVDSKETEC

[15] = molecular target: Angiotensin-converting enzyme (Homo sapiens, UniProt P12821); test: Inhibition of human recombinant ACE
Sequence of Angiotensin-converting enzyme (P12821 whole entry): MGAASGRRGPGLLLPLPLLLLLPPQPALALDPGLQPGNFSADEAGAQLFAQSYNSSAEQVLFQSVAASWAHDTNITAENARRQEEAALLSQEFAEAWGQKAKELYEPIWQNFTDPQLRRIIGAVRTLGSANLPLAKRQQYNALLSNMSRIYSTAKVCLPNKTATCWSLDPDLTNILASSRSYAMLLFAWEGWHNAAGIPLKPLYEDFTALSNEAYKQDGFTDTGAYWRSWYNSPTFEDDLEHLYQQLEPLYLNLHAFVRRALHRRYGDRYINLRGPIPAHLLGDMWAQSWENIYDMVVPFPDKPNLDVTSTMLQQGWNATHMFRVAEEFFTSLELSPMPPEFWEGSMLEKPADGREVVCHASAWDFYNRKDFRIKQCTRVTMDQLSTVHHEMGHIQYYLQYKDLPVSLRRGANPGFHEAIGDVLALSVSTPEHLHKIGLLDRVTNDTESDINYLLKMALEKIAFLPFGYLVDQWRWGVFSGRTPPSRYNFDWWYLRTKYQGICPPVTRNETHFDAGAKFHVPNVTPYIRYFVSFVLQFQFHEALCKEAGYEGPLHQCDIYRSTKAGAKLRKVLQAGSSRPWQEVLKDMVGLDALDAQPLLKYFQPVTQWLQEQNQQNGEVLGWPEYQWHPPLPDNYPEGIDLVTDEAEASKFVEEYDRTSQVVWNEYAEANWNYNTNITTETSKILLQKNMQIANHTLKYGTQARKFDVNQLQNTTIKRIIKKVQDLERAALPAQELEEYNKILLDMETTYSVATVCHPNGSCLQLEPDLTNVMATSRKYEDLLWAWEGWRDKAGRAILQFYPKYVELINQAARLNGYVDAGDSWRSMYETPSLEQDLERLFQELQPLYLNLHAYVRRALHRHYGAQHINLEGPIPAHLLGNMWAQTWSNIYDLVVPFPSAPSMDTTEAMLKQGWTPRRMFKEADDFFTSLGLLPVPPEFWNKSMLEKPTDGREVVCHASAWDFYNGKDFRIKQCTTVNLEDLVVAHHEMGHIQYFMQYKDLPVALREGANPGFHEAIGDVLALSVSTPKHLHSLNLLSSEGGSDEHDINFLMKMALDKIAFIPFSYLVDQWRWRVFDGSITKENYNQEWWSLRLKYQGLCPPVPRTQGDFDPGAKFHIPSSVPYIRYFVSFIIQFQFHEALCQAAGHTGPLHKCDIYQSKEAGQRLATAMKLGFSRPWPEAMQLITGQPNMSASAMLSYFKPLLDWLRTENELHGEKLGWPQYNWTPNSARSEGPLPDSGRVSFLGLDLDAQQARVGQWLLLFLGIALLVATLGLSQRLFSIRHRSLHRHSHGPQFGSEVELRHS

| SMILES | pIC50 [1] | pIC50 [2] | pIC50 [3] | further results |
| --- | --- | --- | --- | --- |
| O=C(O)CS(=O)(=O)CCc1ccc(-c2ccccc2)cc1 | < 4.01 | 5.60 | 4.95 | – |
| O=C(O)CC(O)CCc1ccc(-c2ccc(OCc3ccccc3)cc2)cc1 (stereo unspecified) | < 4.01 | 5.43 | < 4.01 | – |
| O=C(O)C[S+]([O-])CCc1ccc(-c2ccccc2)cc1 (stereo unspecified) | < 4.01 | 5.35 | 4.02 | – |
| O=C(O)CC(=O)CCc1ccc(-c2ccccc2)cc1 | < 4.01 | 5.11 | < 4.01 | – |
| O=C(O)CSCCc1ccc(-c2ccccc2)cc1 | < 4.01 | 4.93 | 4.02 | – |
| O=C(O)CC(O)CCc1ccc(-c2cc3ccccc3o2)cc1 (stereo unspecified) | – | 6.74 | 4.30 | – |
| CC(=O)OC(CCc1ccc(-c2ccccc2)cc1)CC(=O)O (stereo unspecified) | < 4.01 | 4.26 | < 4.01 | – |
| N#Cc1cccc(-c2ccc(CCC(O)CC(=O)O)cc2)c1 (stereo unspecified) | < 4.01 | 5.47 | 4.28 | – |
| CSc1ccc(-c2ccc(CCC(O)CC(=O)O)cc2)cc1 (stereo unspecified) | < 4.01 | 7.24 | 5.95 | – |
| O=C(O)CC(O)CCc1ccc(-c2ccncc2)cc1 (stereo unspecified) | – | 7.26 | 5.42 | – |
| O=C(O)CC(O)CCc1ccc(-c2ccc3c(c2)oc2ccccc23)cc1 (stereo unspecified) | < 4.01 | 4.70 | 4.47 | – |
| O=C(O)CC(O)CCc1ccc(-c2ccc(Oc3ccccc3)cc2)cc1 (stereo unspecified) | < 4.01 | 4.70 | 4.38 | – |
| N#Cc1ccc(-c2ccc(CCC(O)CC(=O)O)cc2)cc1 (stereo unspecified) | < 4.01 | 7.07 | 5.61 | – |
| COC(CCc1ccc(-c2ccccc2)cc1)CC(=O)O (stereo unspecified) | < 4.01 | 5.45 | < 4.01 | – |
| CC(=O)c1ccc(-c2ccc(CCC(O)CC(=O)O)cc2)cc1 (stereo unspecified) | < 4.01 | – | 6.01 | – |
| O=C(O)CC(O)CCc1ccc(-c2ccccc2)cc1 (racemic) | < 4.01 | – | 4.92 | pIC50 [4]: < 4.01; pIC50 [5]: < 4.01; pIC50 [6]: 5.34; logD [7]: 0.55; logD [8]: 1.43; solubility [9]: 960 µg/mL (≈ 3550 µM); solubility [10]: 450 µg/mL (≈ 1660 µM); pIC50 [11]: 4.78; pIC50 [12]: 6.04; pIC50 [13]: 4.36; pIC50 [14]: < 4.01; pIC50 [15]: < 3.60 |
| O=C(O)CC(O)CCc1ccc(-c2ccccc2)cc1 (single isomer, unassigned) | < 4.01 | 6.47 | 5.00 | pIC50 [4]: < 4.01; pIC50 [5]: < 4.01; pIC50 [11]: 4.98; pIC50 [12]: 5.94; pIC50 [13]: 4.44; pIC50 [14]: < 4.01; pIC50 [15]: < 3.60 |
| O=C(O)CC(O)CCc1ccc(-c2ccccc2)cc1 (stereo in doubt) | < 4.01 | 6.10 | 4.43 | pIC50 [4]: < 4.01; pIC50 [5]: < 4.01; pIC50 [11]: 4.72; pIC50 [12]: 5.33; pIC50 [13]: < 5.05; pIC50 [14]: < 4.01; pIC50 [15]: < 3.60 |
